Reference: US10898595B2, “Core-satellite nanocomposites for MRI and photothermal therapy” (The Regents of the University of Michigan, priority 2013, dated 2021)

System: SUM-159 tumors
Experiment: In vivo PTT using IONP-IR820
Design: species or system mice
Details: 10 minutes
Procedure: Tumor-bearing nude mice were randomly allocated into three groups (five mice in each group) when the solid SUM-159 tumors had grown to ˜80 mm3. Mice in each group were intravenously injected with IONP-IR820 (20 mg Fe/Kg mouse body weight), the same amount of IR820, the same amount of IONPs. 24 h post injection, tumors were irradiated with a diode laser (λ=885 nm) at a laser power of 0.5 W for 10 minutes. The highest tumor surface temperature was recorded by an infrared camera (FLIR Systems, i7, Boston, Mass.) before and after application of the laser.
Mice were humanely euthanized by CO2 inhalation 24 h following a single I.V. bolus dose of nanoparticles. The harvested tissue was formalin-fixed, embedded in paraffin and sectioned. Unstained slides were dewaxed using xylene and rehydrated using graded alcohol. Rehydrated slides were stained with Hematoxylin and eosin (H&E staining) for visualization of nucleic acids and cytoplasm.

## CC1(C)C(=CC=C2CCCC(C=CC3=[N+](CCCCS(=O)(=O)[O-])c4ccc5ccccc5c4C3(C)C)=C2Cl)N(CCCCS(=O)(=O)[O-])c2ccc3ccccc3c21.[Na+] [IR820]
24 h post IV injection (20 mg Fe/Kg or same amount), 885 nm laser 0.5 W
  Tumor tissue hemorrhaging right after laser irradiation: does not have any obvious hemorrhaging
24 h post IV injection, laser 0.5 W, infrared camera
  Average temperature increase at the tumor site: 8.3±0.8 °C
